This is an account of results in patent publication US20060003985A1, “Enhancement of sleep with t-type calcium channel antagonists” (priority 2002, published 2006).

The test system of the assay is Sprague Dawley rats. In words: Rat sleep study with ECoG/EMG telemetry (sleep stage scoring). The format is in vivo. The settings on record: averaged over seven nights. From the text:
This study examined the effects of the T-type calcium channel antagonist Compound A (6-chloro-3,4-dihydro-3-ethyl-4-phenyl-4-ethyl-2(1H)-quinazolinone; PCT WO 93/04047) on sleep by using electrocorticogram (ECoG) or electroencephalographic (EEG) measures to determine the efficacy of the T-type calcium channel antagonistin the altering the states of arousal or sleep.
Eight adult male Sprague Dawley rats (450-550 g; Taconic Farms, Germantown, N.Y.) were subcutaneously implanted with telemetric physiologic monitors (Model F50-EET; Data Sciences International, Arden Hills, Minn.) that were used to simultaneously record both the electrocorticogram (ECoG) and electromyographic (EMG) activities. […]
Following the completion of data collection, all data were scored with automated sleep stage analysis software, Somnologica (Medcare Co.; Buffalo, N.Y.). […] Active wake was assigned to the epoch when movement of the animal was detected within the cage, or when there was an active EMG signal and the EEG consisted of alpha and beta frequency activity. An epoch was scored as light sleep when there was no movement activity, the EMG was moderately active and the EEG consisted of either theta or theta with less than 50% of the epoch showing delta activity. Delta sleep was scored when there was no movement, reduced EMG activity, and the EEG consisted of more than 50% delta wave activity (i.e. 0.5 to 4 Hz). […]

As to `CCN1C(=O)Nc2ccc(Cl)cc2C1(CC)c1ccccc1` (centres unmarked) [Compound A, 6-chloro-3,4-dihydro-3-ethyl-4-phenyl-4-ethyl-2(1H)-quinazolinone], the “entries into awake relative to vehicle (sleep fragmentation)” value (FIG. 1, 30 minute bins) was “reduced the entries into awake relative to vehicle”. The “wake duration relative to vehicle” value (FIG. 2, 30 minute bins) is “reduced the wake duration relative to vehicle”.
